Read-outs that look alike come from different tables or passages of the source.
Tests used:
hmGlu1 [1] = target: T1, hmGlu1 (Homo sapiens, UniProt Q13255); test: Calcium mobilization mGlu1 PAM assay; assay type: cell-based; settings: for Fold selective versus mGlu4: mGlu4 EC50 / mGlu1 EC50; for mGlu1 agonism / PAM profile: agonism at concentrations above 10 µM
mGlu5 = mGlu5 (Homo sapiens, UniProt P41594); test: Activity at mGlu5; assay type: cell-based
[2] = In vitro predicted hepatic clearance, rat hepatic microsomes; assay type: in vitro ADME
[3] = Rat brain homogenate binding; assay type: in vitro ADME
[4] = In vitro predicted hepatic clearance, human hepatic microsomes; assay type: in vitro ADME
hmGlu1 [5] = target: T1, hmGlu1; settings: cited from earlier work
[6] = cited from earlier work
[7] = rat; cited from earlier work
[8] = human; cited from earlier work

T1 sequence (Q13255 19-1194): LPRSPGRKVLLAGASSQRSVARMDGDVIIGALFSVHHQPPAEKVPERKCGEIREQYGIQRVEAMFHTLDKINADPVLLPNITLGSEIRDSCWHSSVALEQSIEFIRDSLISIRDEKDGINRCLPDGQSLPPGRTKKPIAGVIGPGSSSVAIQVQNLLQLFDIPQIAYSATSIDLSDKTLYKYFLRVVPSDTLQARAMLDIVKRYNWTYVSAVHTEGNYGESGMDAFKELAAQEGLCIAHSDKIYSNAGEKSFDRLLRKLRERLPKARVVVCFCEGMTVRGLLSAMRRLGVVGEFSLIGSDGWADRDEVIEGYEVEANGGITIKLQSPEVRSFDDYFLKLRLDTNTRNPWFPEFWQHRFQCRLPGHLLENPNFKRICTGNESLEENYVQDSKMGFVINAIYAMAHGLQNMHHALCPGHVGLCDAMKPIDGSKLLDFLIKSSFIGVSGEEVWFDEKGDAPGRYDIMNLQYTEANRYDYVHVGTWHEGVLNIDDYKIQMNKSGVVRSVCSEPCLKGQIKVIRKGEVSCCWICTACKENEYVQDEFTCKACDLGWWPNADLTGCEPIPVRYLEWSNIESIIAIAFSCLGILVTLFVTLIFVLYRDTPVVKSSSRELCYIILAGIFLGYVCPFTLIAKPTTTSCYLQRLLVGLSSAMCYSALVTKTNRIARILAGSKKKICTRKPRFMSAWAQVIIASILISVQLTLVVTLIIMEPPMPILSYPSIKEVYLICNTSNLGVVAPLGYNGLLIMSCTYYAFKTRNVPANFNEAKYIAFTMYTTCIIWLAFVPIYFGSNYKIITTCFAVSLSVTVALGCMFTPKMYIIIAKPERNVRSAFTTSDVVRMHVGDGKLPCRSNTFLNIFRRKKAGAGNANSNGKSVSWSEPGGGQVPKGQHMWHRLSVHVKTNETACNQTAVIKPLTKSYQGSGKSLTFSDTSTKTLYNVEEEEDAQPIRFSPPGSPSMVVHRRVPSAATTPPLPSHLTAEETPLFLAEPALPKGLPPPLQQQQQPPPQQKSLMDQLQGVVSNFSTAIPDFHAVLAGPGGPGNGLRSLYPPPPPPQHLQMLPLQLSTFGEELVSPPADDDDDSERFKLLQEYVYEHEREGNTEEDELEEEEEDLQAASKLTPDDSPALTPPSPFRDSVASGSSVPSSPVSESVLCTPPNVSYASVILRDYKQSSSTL
mGlu5, sequence (P41594 21-1212): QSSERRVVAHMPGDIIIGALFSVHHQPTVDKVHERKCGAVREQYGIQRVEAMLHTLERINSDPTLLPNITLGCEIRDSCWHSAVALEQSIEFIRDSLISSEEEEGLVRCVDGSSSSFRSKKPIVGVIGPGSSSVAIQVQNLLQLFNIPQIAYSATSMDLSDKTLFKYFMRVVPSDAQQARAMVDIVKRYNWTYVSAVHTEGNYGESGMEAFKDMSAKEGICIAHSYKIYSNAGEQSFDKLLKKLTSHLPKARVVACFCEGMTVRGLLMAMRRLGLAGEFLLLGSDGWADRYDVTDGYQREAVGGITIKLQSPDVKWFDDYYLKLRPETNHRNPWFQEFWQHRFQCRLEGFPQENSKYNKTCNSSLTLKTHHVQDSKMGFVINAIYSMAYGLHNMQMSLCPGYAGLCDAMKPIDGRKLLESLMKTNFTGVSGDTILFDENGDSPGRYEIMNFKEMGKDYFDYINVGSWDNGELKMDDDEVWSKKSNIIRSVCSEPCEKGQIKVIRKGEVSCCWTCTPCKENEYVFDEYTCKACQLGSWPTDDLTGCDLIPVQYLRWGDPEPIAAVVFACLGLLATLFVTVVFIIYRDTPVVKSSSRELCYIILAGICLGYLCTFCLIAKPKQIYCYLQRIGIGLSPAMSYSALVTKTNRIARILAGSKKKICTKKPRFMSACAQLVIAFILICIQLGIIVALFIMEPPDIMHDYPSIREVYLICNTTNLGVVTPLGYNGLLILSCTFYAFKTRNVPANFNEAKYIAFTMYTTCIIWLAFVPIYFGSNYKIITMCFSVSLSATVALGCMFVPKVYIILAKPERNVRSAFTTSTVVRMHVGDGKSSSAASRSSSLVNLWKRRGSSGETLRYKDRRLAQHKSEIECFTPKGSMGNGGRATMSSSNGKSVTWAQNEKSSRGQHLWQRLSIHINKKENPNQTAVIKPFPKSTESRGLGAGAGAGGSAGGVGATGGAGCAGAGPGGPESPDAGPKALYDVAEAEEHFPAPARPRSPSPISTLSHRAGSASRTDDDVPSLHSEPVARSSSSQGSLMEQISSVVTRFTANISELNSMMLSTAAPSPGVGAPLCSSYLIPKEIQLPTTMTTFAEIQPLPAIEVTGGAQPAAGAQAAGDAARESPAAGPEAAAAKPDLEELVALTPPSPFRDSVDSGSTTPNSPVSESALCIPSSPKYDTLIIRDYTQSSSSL

In the case of `Cc1ccoc1C(=O)Nc1ccc(N2C(=O)c3ccccc3C2=O)cc1` [10a], the “Fold selective versus mGlu4” value (hmGlu1 [1]) is reported as over 208 fold.

With `Cc1ccoc1C(=O)Nc1ccc(N2C(=O)c3ccccc3C2=O)nc1` [11a] the “Fold selective versus mGlu4” value (hmGlu1 [1]) was over 25.8 fold.

With `Cc1ccoc1C(=O)Nc1cnc(N2C(=O)c3ccccc3C2=O)nc1` [11e] the “mGlu1 versus mGlu4 PAM potency” value (hmGlu1 [1]) was “equipotent”.

With `Cc1ccoc1C(=O)Nc1cnc(N2C(=O)c3cccc(F)c3C2=O)nc1` [11h] the “mGlu1 versus mGlu4 PAM potency” value (hmGlu1 [1]) was “equipotent” and the “Fold selective versus mGlu4” value (hmGlu1 [1]) was over 1.88 fold.

In the case of `Cc1ccoc1C(=O)Nc1ccc(N2C(=O)c3ccccc3C2=O)cc1F` [12a], the “activity at mGlu5” value (mGlu5) is reported as “no activity”, the “mGlu1 agonism / PAM profile” value (hmGlu1 [1]) is reported as “did not show any observable agonistic effect” and the “Fold selective versus mGlu4” value (hmGlu1 [1]) is reported as over 793 fold. For the same compound, the “predicted hepatic clearance CLHEP” value [2] was 48.5 mL/min/kg, the fraction unbound [3] was under 0.01 and the “predicted hepatic clearance CLHEP” value [4] was 9.65 mL/min/kg.

For `Cc1ccoc1C(=O)Nc1ccc(N2C(=O)c3ccccc3C2=O)cc1Cl` [12b], the “activity at mGlu5” value (mGlu5) was “no activity”, the “mGlu1 agonism / PAM profile” value (hmGlu1 [1]) was “did not show any observable agonistic effect” and the “Fold selective versus mGlu4” value (hmGlu1 [1]) was over 344 fold. For the same compound, the “predicted hepatic clearance CLHEP” value [2] was 48.7 mL/min/kg, the fraction unbound [3] was under 0.01 and the “predicted hepatic clearance CLHEP” value [4] was 9.25 mL/min/kg.

For `COc1cc(N2C(=O)c3ccccc3C2=O)ccc1NC(=O)c1occc1C` [12e], the “Fold selective versus mGlu4” value (hmGlu1 [1]) was over 30.3 fold.

In the case of `Cc1ccoc1C(=O)Nc1ccc(N2C(=O)c3cccc(F)c3C2=O)c(Cl)c1` [compound 4], the mGlu1 agonism (hmGlu1 [5]; at concentrations above 10 µM, previously observed with parent compound) is listed as “considerable agonism”, the “selectivity versus mGlu4” value (hmGlu1 [5]) is listed as 35 fold and the “Kp (CNS penetration)” value [6] is listed as 1.02. For the same compound, the CLp ([6]; rat PK) was 13.3 mL/min/kg, the free fraction fu [7] was 0.03 and the free fraction fu [8] was 0.05.

Reference: publication PMC4758672 (Bioorganic & medicinal chemistry letters, 2015)
